Among the data in EP4653437A2 (Innovo Therapeutics Inc., priority 2023, dated 2024) are IC50 and fold induction values, retold here.

One test addresses T1, human 15-PGDH (Homo sapiens, UniProt P15428).
T1 construct: purchased R&D System 5660-DH
T1 sequence (P15428 1-266): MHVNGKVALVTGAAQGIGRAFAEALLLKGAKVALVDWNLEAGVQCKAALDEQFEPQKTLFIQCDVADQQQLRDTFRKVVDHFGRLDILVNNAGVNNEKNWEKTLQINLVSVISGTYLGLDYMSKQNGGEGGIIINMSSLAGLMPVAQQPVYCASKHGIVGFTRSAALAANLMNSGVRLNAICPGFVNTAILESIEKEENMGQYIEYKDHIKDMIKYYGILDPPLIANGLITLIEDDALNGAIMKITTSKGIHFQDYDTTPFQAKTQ
Description: Evaluation of 15-PGDH inhibitory activity (fluorescence enzyme assay, NAD+/PGE2). It counts as biochemical. The following applies: human 15-PGDH enzyme, fluorescence Vmax. How it is done: 15-PGDH inhibition activity of Example compounds was measured as follows. 6.7 ng of human 15-PGDH (R&D System# 5660-DH) enzyme (10 µL) was added to a black 96 well plate, 60 µL of buffer (50 mM Tris-HCl, pH 7.5, 0.01% Tween 20) was added, and 10 µL of 200 µM β-Nicotinamide adenine dinucleotide sodium salt (Sigma, Cat# N0632-5G) was added. 10 µL of (10x) compound solution in DMSO was added and reacted for 10 minutes at room temperature.

Another test deals with A549 cells. The test is described as follows: Measurement of PGE2-increasing activity in A549 cells (IL-1β stimulated, PGE2 quantified in supernatant). It counts as cell-based. The following applies: Homo sapiens, 24 h; concentration of 1 µM of each compound; IL-1β treated A549 cells; read-out: Increased PGE2 production in A549 cells. The method, boiled down: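 PGE2 secreted into the supernatant was measured by immunoassay 24 h after treatment. Before treatment, A549 cells were cultured 24 h in 10% FBS F12K, washed, and placed in serum-free medium containing compound (DMSO 0.1% final) plus or minus IL-1β, incubated at 37 °C, 5% CO2.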

By IC50 is commonly meant the midpoint of a concentration-inhibition curve. Higher therefore signals a need for much substance. In the case of `O=C(Nc1cccnc1)c1ccc(-c2cccc3c(C(=O)N4CCCCC4)cnn23)cn1` [Example 87, 5-(3-(piperidine-1-carbonyl)pyrazolo[1,5-a]pyridin-7-yl)-N-(pyridin-3-yl)picolinamide], on human 15-PGDH, the IC50 was no more than 100 nM. The fold induction at 1 µM in the test on A549 cells was less than 1.5.

At human 15-PGDH, `Cn1cnc(-c2cccc3c(C(=O)N4CCCCC4)cnn23)cc1=O` [Example 207, 3-methyl-6-(3-(piperidine-1-carbonyl)pyrazolo[1,5-a]pyridin-7-yl)pyrimidin-4(3H)-one] had an IC50 of no more than 100 nM. Besides, the fold induction at 1 µM in the test with A549 cells is less than 1.5.

`O=C(Nc1cccc(-c2cccc3c(C(=O)N4CCCCC4)cnn23)c1)C1CC1` [Example 94, N-(3-(3-(piperidine-1-carbonyl)pyrazolo[1,5-a]pyridin-7-yl)phenyl)cyclopropanecarboxamide] returned an IC50 at human 15-PGDH of no more than 100 nM. The fold induction at 1 µM with A549 cells was greater than 1.5.

In the case of `O=C(Cc1cncnc1)Nc1cncc(-c2cccc3c(C(=O)N4CCCCC4)cnn23)c1` [Example 403, N-(5-(3-(piperidine-1-carbonyl)pyrazolo[1,5-a]pyridin-7-yl)pyridin-3-yl)-2-(pyrimidin-5-yl)acetamide], at human 15-PGDH, the IC50 is no more than 100 nM. The fold induction at 1 µM in the test with A549 cells was greater than 1.5.

`CN(C)CCNC(=O)c1cccc(-c2cccc3c(C(=O)N4CCCCC4)cnn23)c1` [Example 31, N-(2-(dimethylamino)ethyl)-3-(3-(piperidine-1-carbonyl)pyrazolo[1,5-a]pyridin-7-yl)benzamide] gave an IC50 against human 15-PGDH of no more than 100 nM. The fold induction at 1 µM in the test on A549 cells was less than 1.5.

At human 15-PGDH, `O=C(c1cnn2c(-c3ccc(-c4noc(=O)[nH]4)c(F)c3)cccc12)N1CCCCC1` [Example 304, 3-[2-fluoro-4-[3-(piperidine-1-carbonyl)pyrazolo[1,5-a]pyridin-7-yl]phenyl]-4H-1,2,4-oxadiazol-5-one] yielded an IC50 of no more than 100 nM. Also, the fold induction at 1 µM in the test with A549 cells was greater than 1.5.

As for `C[C@H]1CCCN(C(=O)c2cnn3c(-c4ccc5c(c4)C(=O)NC5)cccc23)C1` [Example 386, (S)-6-(3-(3-methylpiperidine-1-carbonyl)pyrazolo[1,5-a]pyridin-7-yl)isoindolin-1-one], the IC50 on human 15-PGDH was no more than 100 nM. The fold induction at 1 µM with A549 cells was greater than 1.5.

Take `O=C(c1cnn2c(-c3ccnc(Cl)c3)cccc12)N1CCCCC1` [Example 8, (7-(2-chloropyridin-4-yl)pyrazolo[1,5-a]pyridin-3-yl)(piperidin-1-yl)methanone]: at human 15-PGDH, the IC50 is no more than 100 nM. In the test with A549 cells, the fold induction at 1 µM is greater than 1.5.

On to `C[C@@H]1CCCN(C(=O)c2cnn3c(-c4ccc5c(c4)C(=O)NC5)cccc23)C1` [Example 385, (R)-6-(3-(3-methylpiperidine-1-carbonyl)pyrazolo[1,5-a]pyridin-7-yl)isoindolin-1-one], for which the half-inhibitory concentration (IC50) at human 15-PGDH is no more than 100 nM. In the test with A549 cells, the fold induction at 1 µM was greater than 1.5.

At human 15-PGDH, `CCC1CCCN(C(=O)c2cnn3c(-c4ccc5c(c4)C(=O)NC5)cccc23)C1` (stereo not drawn) [Example 393, 6-(3-(3-ethylpiperidine-1-carbonyl)pyrazolo[1,5-a]pyridin-7-yl)isoindolin-1-one] came in with an IC50 of no more than 100 nM. Besides, the fold induction at 1 µM with A549 cells is greater than 1.5.

In turn, `O=C(c1cnn2c(-c3ccc(N4CCOC4=O)nc3)cccc12)N1CCCC(C(F)(F)F)C1` (stereo not drawn) [Example 339, 3-(5-(3-(3-(trifluoromethyl)piperidine-1-carbonyl)pyrazolo[1,5-a]pyridin-7-yl)pyridin-2-yl)oxazolidin-2-one] displayed an IC50 against human 15-PGDH of no more than 100 nM. In the test on A549 cells, the fold induction at 1 µM was greater than 1.5.

Regarding `N#CCNC(=O)c1cncc(-c2cccc3c(C(=O)N4CCCCC4)cnn23)c1` [Example 52, N-(cyanomethyl)-5-(3-(piperidine-1-carbonyl)pyrazolo[1,5-a]pyridin-7-yl)nicotinamide], on human 15-PGDH, the IC50 is no more than 100 nM. Also, the fold induction at 1 µM with A549 cells is greater than 1.5.
